Measured values taken from US20090233975A1, “Hair resiliency/body improver and hair cosmetic” (priority 2005, published 2009).

Tested on: KAP5.1 gene
Assay: KAP5.1 reporter assay (dual luciferase, pGL3-KAP5.1 in IORS cells)
Type: cell-based, human
Conditions: overnight culture, negative control K-SFM(−) = 100
Method: A DNA fragment of about 15 kb containing KAP5.1 gene and KAP5.2 gene was amplified by PCR using an NM-F1 primer (SEQ ID NO. 6), in which the recognition sites of restriction endonuclease NotI and MluI were added to the 5′-terminal thereof, and an R2 primer (SEQ ID NO. 7), and using commercially available human genomic DNA (obtained from Promega) as the template (FIG. 1-A).
The amplified DNA fragment was double-digested with restriction endonucleases MluI and NheI, and a DNA fragment of about 4.9 kb was recovered following separation by agarose gel electrophoresis. This DNA fragment was cloned between the MluI and NheI sites of reporter vector pGL-3basic (obtained from Promega) having a gene that encodes firefly luciferase (FIG. 1-B). Reporter plasmid pGL-3-KAP5.1 containing the 5′ upstream region (SEQ ID NO. 8) of KAP5.1 was then constructed by subcloning [Step 1: subcloning of SacI/NcoI fragment (154 bp, FIG. 2) to pGL-3basic; Step 2: insertion of ScaI fragment (about 4.0 kbp, FIG. 2) into resulting plasmid] (FIG. 2).
8×10^5 immortalized outer root sheath (IORS) cells (obtained in accordance with Japanese Unexamined Patent Publication (Kokai) No. 2000-89) were seeded into a 75 cm^2 flask and cultured for 6 days under conditions of 37° C. and 5% CO2. Keratinocyte-SFM medium (Gibco) was used as the medium.
Day 1: Plasmid DNA Transfection (transient). The cultured IORS cells were dually transformed with the previously constructed reporter plasmid pGL3-KAP5.1 (firefly luciferase) and commercially available internal standard plasmid pRL-TK (renilla luciferase) in accordance with the manual provided with Effectene Transfection Reagent (Qiagen).
Day 2: The transformed cells were re-seeded into in a 24-well multiwell plate at 10 to 16×10^4 cells per well and cultured overnight under conditions of 37° C. and 5% CO2.
Day 3: The medium in each well was replaced with a basal medium in which each drug was dissolved followed by culturing overnight under conditions of 37° C. and 5% CO2.
Day 4: Assay. Luciferase activity was assayed for each well using the Dual-Luciferase Reporter Assay System (Promega) in accordance with the manual provided by the manufacturer. The AutoLumat LB953 (Berthold) was used for the luminometer.
An assay was carried out under the same conditions with the exception of not containing drug as a negative control [K-SFM(−)]. The effect of increasing gene expression are represented in the form of the rate of increase (ratio based on a value of 100 for the negative control).

Structure (SMILES) | Rate of Increase (KAP5.1 gene expression, ratio based on a value of 100 for the negative control) (10 ppm drug) | Rate of Increase (KAP5.1 gene expression, ratio based on a value of 100 for the negative control) (100 ppm drug) | Rate of Increase (KAP5.1 gene expression, ratio based on a value of 100 for the negative control) (300 ppm drug)
CC(=O)Nc1cc(C)on1 [3-acetamido-5-methylisoxazole] | 100 | 110 | 125
Cc1cc(N)no1 [3-amino-5-methylisoxazole] | 120 | 140 | 160
CC(=O)Nc1nccs1 [2-acetamidothiazole] | 130 | 180 | 
Nc1nccs1 [2-aminothiazole] | 110 | 140 | 
CC(=O)Nc1nc(C)cs1 [2-acetamido-4-methylthiazole] | 110 | 150 | 
